Read-outs that look alike come from different tables or passages of the source.
Legend:
22RV1 = assay: Cell proliferation assay (CellTiterGlo, 72 h), 22RV1; type: cell-based; conditions: read-out: 22Rv1 ATP average IC50
Method: All incubations were performed at 37° C. in a humidified carbon dioxide incubator.
(§1) The cells were seeded in a 96-well plate (white wall/transparent bottom) at 5000 cells/well and cultured overnight.
(§2) On day 2, A stock solution of the compound at a concentration of 10 mM was subjected to an 8-fold serial dilution to obtain 8 concentration points. 2 μL of the compound solution at each concentration point was added to 98 μL of fresh medium, and the mixture was mixed homogeneously. Then, 5 μL of the compound solution diluted in the medium at each concentration point was added to 100 μL of overnight medium containing the cells, and 2 replicates were set for each concentration. The mixture was cultured for 72 h.
(§3) After 72 h of compound treatment, the plate was equilibrated to room temperature, 100 μL of CellTiterGlo (Promega) was added. The mixture was mixed homogeneously for 2 min, left to stand at room temperature for 10 min, and then read for luminescence values on a SpectraMax M5 microplate reader to evaluate cell viability. The positive control was 1% Tween-20 and the negative control was 0.1% DMSO. IC50 was generated by 4-parameter non-linear regression fitting in GraphPad Prism.

LNCaP = assay: Cell proliferation assay (CellTiterGlo, 72 h), LNCaP; type: cell-based; conditions: LNCap cells, 72 h compound treatment, read-out: LNCap ATP average IC50
Method: The cell line used was 22RV1 or LNCaP, and the medium was RPMI-1640 containing 10% FBS and antibiotics. All incubations were performed at 37° C. in a humidified carbon dioxide incubator.
On day 1, cells were digested with 0.25% trypsin (containing EDTA) and collected by centrifugation.
as §1, §2, §3

[1] = Homo sapiens, 22Rv1 cells, 72 h compound treatment, CellTiterGlo

SMILES	IC50 (22RV1; [1]) [nM]	IC50 (LNCaP; Homo sapiens) [nM]	also measured
Cc1sc2c(c1C)C(c1ccc(-c3ccc(CN)n3C)cc1)=N[C@@H](CC(=O)OC(C)(C)C)c1nnc(C)n1-2 [Compound 9062]	50 to 200	50 to 200	–
COc1ccc2c(c1)C(c1ccc(C#CCN)cc1)=N[C@@H](CC(=O)N(C)CCO)c1nnc(C)n1-2 [Compound 9063]	–	> 500	IC50 (22RV1; Homo sapiens, 22Rv1, 72 h): > 500 nM
CONCC#Cc1ccc(C2=N[C@@H](CC(=O)OC(C)(C)C)c3nnc(C)n3-c3sc(C)c(C)c32)cc1 [Compound 9064]	< 50	< 50	–
Cc1sc2c(c1C)C(c1ccc(N3CC4(CC(N)C4)C3)cc1)=N[C@@H](CC(=O)OC(C)(C)C)c1nnc(C)n1-2 [Compound 9066]	200 to 500	< 50	–
Cc1sc2c(c1C)C(c1ccc(-c3ccc(CN)s3)cc1)=N[C@@H](CC(=O)OC(C)(C)C)c1nnc(C)n1-2 [Compound 9067]	50 to 200	50 to 200	–
Cc1sc2c(c1C)C(c1ccc(-c3ncc(CN)s3)cc1)=N[C@@H](CC(=O)OC(C)(C)C)c1nnc(C)n1-2 [Compound 9068]	50 to 200	50 to 200	–
CCOC(=O)C[C@@H]1N=C(c2ccc(C#CCN)cc2)c2cc(OC)ccc2-n2c(C)nnc21 [Compound 9069]	–	< 50	IC50 (22RV1; Homo sapiens, 22Rv1, 72 h): < 50 nM
COc1ccc2c(c1)C(c1ccc(C#CCN)cc1)=N[C@@H](CC(=O)O)c1nnc(C)n1-2 [Compound 9070]	–	> 500	IC50 (22RV1; Homo sapiens, 22Rv1, 72 h): > 500 nM
Cc1sc2c(c1C)C(c1ccc(-c3csc(CN)n3)cc1)=NC(CC(=O)OC(C)(C)C)c1nnc(C)n1-2 (stereo not drawn) [Compound 9072]	50 to 200	< 50	–
Cc1sc2c(c1C)C(c1ccc(-c3cnc(CN)s3)cc1)=NC(CC(=O)OC(C)(C)C)c1nnc(C)n1-2 (stereo not drawn) [Compound 9073]	50 to 200	< 50	–
Cc1sc2c(c1C)C(c1ccc(-c3nc(CN)cs3)cc1)=N[C@@H](CC(=O)OC(C)(C)C)c1nnc(C)n1-2 [Compound 9074]	–	–	IC50 (22RV1; 22Rv1 cells, 72 h compound treatment, CellTiterGlo): 50 to 200 nM; IC50 (LNCaP): < 50 nM
Cc1sc2c(c1C)C(c1ccc(C#CCN)cc1)=N[C@@H](CC(=O)N(C)CCO)c1nnc(C)n1-2 [Compound 9075]	–	< 50	IC50 (22RV1; Homo sapiens, 22Rv1, 72 h): 200 to 500 nM
Cc1sc2c(c1C)C(c1ccc(C#CCN)cc1)=N[C@@H](CC(=O)NCCO)c1nnc(C)n1-2 [Compound 9076]	–	200 to 500	IC50 (22RV1; Homo sapiens, 22Rv1, 72 h): > 500 nM
Cc1sc2c(c1C)C(c1ccc(/C=C/CON)cc1)=N[C@@H](CC(=O)OC(C)(C)C)c1nnc(C)n1-2 [Compound 9083]	< 50	–	–
Cc1sc2c(c1C)C(c1ccc(-c3ccc(CN)cc3)cc1)=NC(CC(=O)OC(C)(C)C)c1nnc(C)n1-2 (stereo not drawn) [Compound 9084]	200 to 500	50 to 200	–
Cc1sc2c(c1C)C(c1ccc(-c3cccc(CN)c3)cc1)=NC(CC(=O)OC(C)(C)C)c1nnc(C)n1-2 (stereo not drawn) [Compound 9085]	> 500	50 to 200	–
Cc1sc2c(c1C)C(c1ccc(-c3ccc(N)cc3)cc1)=NC(CC(=O)OC(C)(C)C)c1nnc(C)n1-2 (stereo not drawn) [Compound 9086]	200 to 500	200 to 500	–
Cc1sc2c(c1C)C(c1ccc(-c3cccc(N)c3)cc1)=NC(CC(=O)OC(C)(C)C)c1nnc(C)n1-2 (stereo not drawn) [Compound 9087]	> 500	200 to 500	–
Cc1sc2c(c1C)C(c1ccc(N3CC(=NO)C3)cc1)=N[C@@H](CC(=O)OC(C)(C)C)c1nnc(C)n1-2 [Compound 9090]	> 500	50 to 200	–
Cc1sc2c(c1C)C(c1ccc(C#CCN)cc1)=N[C@@H](CCOC(=O)C(C)(C)C)c1nnc(C)n1-2 [Compound 9091]	–	200 to 500	IC50 (22RV1; Homo sapiens, 22Rv1, 72 h): 50 to 200 nM
COc1ccc2c(c1)C(c1ccc(/C=C/CON)cc1)=N[C@@H](CC(=O)OC(C)(C)C)c1nnc(C)n1-2 [Compound 9092]	–	–	IC50 (22RV1; Homo sapiens, 22Rv1, 72 h): > 500 nM
CC(=O)NOC/C=C/c1ccc(C2=N[C@@H](CC(=O)OC(C)(C)C)c3nnc(C)n3-c3sc(C)c(C)c32)cc1 [Compound 9094]	50 to 200	50 to 200	–
Cc1noc2c1-c1ccccc1C(c1ccc(/C=C/CNO)cc1)=N[C@H]2CC(=O)OC(C)(C)C [Compound 9095]	50 to 200	50 to 200	–
CONC/C=C/c1ccc(C2=N[C@@H](CC(=O)OC(C)(C)C)c3onc(C)c3-c3ccccc32)cc1 [Compound 9097]	> 500	> 500	–
Cc1sc2c(c1C)C(c1ccc(N3CC(CO)C3)cc1)=N[C@@H](CC(=O)OC(C)(C)C)c1nnc(C)n1-2 [Compound 9105]	200 to 500	–	–
Cc1sc2c(c1C)C(c1ccc(C#CCN)cc1)=N[C@@H](CC13OCC(C)(CO1)CO3)c1nnc(C)n1-2 [Compound 9113]	–	–	IC50 (22RV1): 200 to 500 nM

Reference: patent publication US20250109141A1, “BRD4 PROTEIN DEGRADER COMPOUND, AND PREPARATION METHOD AND USE THEREOF” (Miracure Biotechnology Limited, priority 2023, published 2025)
